{"source": "patent US20190350907A1", "about": "“METHODS AND PHARMACEUTICAL COMPOSITIONS FOR REDUCING CD95- MEDIATED CELL MOTILITY” (INSERM (INSTITUT NATIONAL DE LA SANTÉ ET DE LA RECHERCHE …, priority 2017, published 2019)", "key": {"activated PBLs": {"system": "activated PBLs", "assay": "CD95-mediated cell migration / endothelial transmigration of activated PBLs (Boyden chamber)", "type": "cell-based, human", "conditions": "result in words", "description": "FIG. 3. Drugs inhibit CD95-mediated Ca′ response and cell migration. A. Activated PBLs were loaded with FuraPE3-AM (1 μM) and pre-treated for 1 h with non-toxic concentrations of indicated compounds. T-cells were then stimulated with cl-CD95L (100 ng/mL; arrow). Ratio values (R) were normalized to pre-stimulated values (R0) to yield R/R0 values. Data represent means±the SD. B. Left panel: using Boyden chamber assay, cell migration of parental H9 cells and their counterpart lacking CD95 (CD95-KO) was assessed. Right panel: activated PBLs were pre-incubated in the presence or absence of the indicated drugs for 1 hour using non-toxic concentration and the CD95-mediated cell migration was assessed by Boyden chambers. C. Th17 cells were sorted from blood of healthy donors (peripheral blood mononuclear cell). FACS analyses showing the efficiency of Th17 (CCR6^+ CXCR3^−) cell sorting from healthy donors PBMCs. D. Th17 cells were pre-incubated in the presence or absence of the indicated drugs for 1 hour using non-toxic concentration and cell migration was assessed by Boyden chambers. After membrane hydration of Boyden chambers (Millipore, Molsheim, France) containing 8 μm pore membranes, 10^5 cells were added to the top chamber. The bottom chamber was filled with low serum (1%)-containing medium in the presence or absence of cl-CD95L (100 ng/ml). Cells were incubated for 24 h. To quantify invasion, cells were fixed with methanol and stained with Giemsa. Stained cells were then removed from the top-side of the membrane using a cotton-tipped swab and five representative pictures for each insert were taken of the invading cells from the reverse side. For each experiment, invading cells were lysed and absorbance at 560 nm was measured. Membranes (3 μm pore size) of a Boyden chamber were hydrated in sterile D-PBS (Millipore, Molsheim, France). Thereafter, activated T-lymphocytes (10^6) were added to the top chamber on a confluent monolayer of HUVEC in a low serum (1%)-containing medium. The bottom chamber was filled with low serum (1%)-containing medium in presence or absence of 100 ng/ml of cl-CD95L. In experiments using human sera, 500 μl of serum from either healthy donors or SLE patients was added to the lower chamber. Cells were cultured for 24 h at 37° C. in a 5% CO2, humidified incubator. Transmigrated cells were counted in the lower reservoir by flow cytometry using a standard of 2.5×10^4 fluorescent beads (Flow-count, Beckman Coulter)."}, "Th17 cells": {"system": "Th17 cells", "assay": "CD95-mediated migration / endothelial transmigration of Th17 cells (Boyden chamber)", "type": "cell-based, human", "conditions": "non-toxic concentrations, 1 hour pre-incubation, Boyden chambers", "description": "FIG. 3. Drugs inhibit CD95-mediated Ca′ response and cell migration. A. Activated PBLs were loaded with FuraPE3-AM (1 μM) and pre-treated for 1 h with non-toxic concentrations of indicated compounds. T-cells were then stimulated with cl-CD95L (100 ng/mL; arrow). Ratio values (R) were normalized to pre-stimulated values (R0) to yield R/R0 values. Data represent means±the SD. B. Left panel: using Boyden chamber assay, cell migration of parental H9 cells and their counterpart lacking CD95 (CD95-KO) was assessed. Right panel: activated PBLs were pre-incubated in the presence or absence of the indicated drugs for 1 hour using non-toxic concentration and the CD95-mediated cell migration was assessed by Boyden chambers. C. Th17 cells were sorted from blood of healthy donors (peripheral blood mononuclear cell). […] D. Th17 cells were pre-incubated in the presence or absence of the indicated drugs for 1 hour using non-toxic concentration and cell migration was assessed by Boyden chambers. […] To quantify invasion, cells were fixed with methanol and stained with Giemsa. […] For each experiment, invading cells were lysed and absorbance at 560 nm was measured. […] Cell sorting efficiency was evaluated by FACS. […] Transmigrated cells were counted in the lower reservoir by flow cytometry using a standard of 2.5×10^4 fluorescent beads (Flow-count, Beckman Coulter)."}}, "data": [{"smiles": "O=C(O)c1cc(-c2ccc(F)cc2F)ccc1O", "note": "[diflunisal, 5-(2,4-difluorophenyl)-2-hydroxybenzoic acid]", "values": [{"measurement": "effect on endothelial transmigration of PBLs", "setting": "activated PBLs", "result": "inhibited"}, {"measurement": "effect on endothelial transmigration in Th17 cells", "setting": "Th17 cells", "result": "abrogated"}]}, {"smiles": "CC(C)c1nc(CN(C)C(=O)N[C@H](C(=O)N[C@@H](Cc2ccccc2)C[C@H](O)[C@H](Cc2ccccc2)NC(=O)OCc2cncs2)C(C)C)cs1", "note": "[ritonavir, 1,3-thiazol-5-ylmethyl N-[(2S,3S,5S)-3-hydroxy-5-[[(2S)-3-methyl-2-[[methyl-[(2-propan-2-yl-1,3-thiazol-4-yl)methyl]carbamoyl]amino]butanoyl]amino]-1,6-diphenylhexan-2-yl]carbamate]", "values": [{"measurement": "effect on endothelial transmigration of PBLs", "setting": "activated PBLs", "result": "inhibited"}, {"measurement": "effect on endothelial transmigration in Th17 cells", "setting": "Th17 cells", "result": "abrogated"}]}]}
